The Tmax is the time at which the peak concentration occurs. One may read the half-life as the time needed for the level to fall by half in the phase considered. A lower half-life goes with fast loss. For orientation: Vd/F means the apparent distribution volume after extravascular dosing.

We go through four molecules from paper PMC3836906 (Cancer chemotherapy and pharmacology, 2013).

Series [1] in a line: in vivo. As to conditions: CD2F1, mouse, iv, 20 mg/kg.
For series [2] the following is noted: in vivo.
Series [3] concerns human RXF-393 renal carcinoma cell xenografts. As to conditions: mouse, in vivo; cited from earlier work.
For series [4], the system named is A498 human renal cell cancer xenografts. As to conditions: in vivo; cited from earlier work.
In series [5] the test system is human 786-0 renal cell tumors. As to conditions: mouse, in vivo; cited from earlier work.
Another series relates to cell cycle. The note with it: cited from earlier work.
A short description of series [6]: in vivo. As to conditions: CD2F1, mouse, iv, 20 mg/kg. This is another data set of the same source.
In the next series the test system is renal carcinoma cells. The note with it: cited from earlier work.
Series [7] concerns human ACHN renal cell tumors. The note with it: mouse, in vivo; cited from earlier work.
The conditions of series [8]: mouse, in vivo.
The test system of series [9] is mice. The note with it: mouse, in vivo.
The subject of series [10] is mice. As to conditions: mouse, in vivo. This is another data set of the same source.
The test system of the next series is RBC ALDH. As to conditions: mouse, in vivo, ip, 300 mg/kg; cited from earlier work.
The test system of another series is ALDH1B1. The note with it: cited from earlier work.
The test system of a further series is liver ALDH. As to conditions: mouse, in vivo, ip, 300 mg/kg; cited from earlier work.

Values joined by “and” are separate entries in the source; they are usually repeats but may differ in a detail not shown here. Identical values can stand only once. Like-named read-outs stand apart in the source and are kept apart here.

On to `Cc1cc(N(CCO)CCO)ccc1C(=O)O` [BA-(OH)2, 4-[bis[2-hydroxy-ethyl]amino]-2-methyl-benzoic acid], for which the Tmax in “in vivo [1]” (plasma) was 10 min. The molecule further displayed a half-life in “in vivo [1]” (plasma, Half-life, BEN 20 mg/kg iv alone) of 29 min. Further, in series [2] (mouse), the Cl/F is 1.90 mL/min/kg and 1.20 mL/min/kg; the Tmax is on record as 10 min; the Vd/F is 83 L/kg and 60 L/kg.
`Cc1cc(N(CCOS(C)(=O)=O)CCOS(C)(=O)=O)ccc1C=O` [BEN, 4-[bis[2-[(methylsulfonyl)-oxy]ethyl]amino]-2-methyl-benzaldehyde]: in series [3], the Cure rate is reported as above 70%. In series [4], the “Effect on xenograft growth” value is “slowed the growth”. Moreover, the Anti-tumor activity entry in series [5] is given as “significant activity”. In addition, in the series on cell cycle, the Cell cycle effect result is “S and G2/M cell cycle arrest”. Further, the Tmax in “in vivo [1]” (in vivo) was 5 min. Besides, the CL renal in the series “in vivo [6]” was 0.4 mL/min. For the same molecule, in series [2] (CD2F1, mouse), the “Increase of BEN plasma exposure by disulfiram pretreatment” value amounted to 368 fold and the “Time after administration at which analyte became undetectable in plasma” value worked out at 15 min. In series [2] (CD2F1, mouse, iv, 20 mg/kg), the Cl/F is recorded as 0.18 mL/min/kg, the Tmax worked out at 5 min and the Vd/F worked out at 120 L/kg. Also, the “Activity in NCI 60 cell line screen” value in the series on renal carcinoma cells is “specific activity”. The Anti-tumor activity result in series [7] was “significant activity”. In series [8], the Body weight loss result was “approximately 12%”. In the series with mice [9], the “Day after dosing by which blood values returned to normal” value was at most 14 days; the “Effect of disulfiram pretreatment on percentage lymphocytes nadir” value is “appeared to deepen”; the “Hematocrits, white blood cells and percent lymphocytes following treatment” value is “decreased”.
Take `CS(=O)(=O)OCCCCOS(C)(=O)=O` [busulfan, reference compound]: in series [3], the Anti-tumor activity entry was “no activity”.
As for `CCN(CC)C(=S)SSC(=S)N(CC)CC` [disulfiram, Tetraethylthiuram disulfide], in the series on mice [10], the Hepatic pathology entry is reported as “mild hepatic lesions”. The “Reduction of ALDH activity in RBC compared to controls” value in the series on RBC ALDH is 81%. Further, in the series with ALDH1B1, the “Sensitivity of ALDH1B1 to inhibition” value is given as “insensitive to inhibition”. Besides, the Body weight loss result in series [8] is “approximately 12%”. Also, the “Reduction of ALDH activity in liver compared to controls” value with liver ALDH is given as 27%.
